# Experimental data published in the Kinase Knowledgebase extract (Sharma et al. 2016).
# Molecular target: MAPK14 (human) (UniProt Q16539)
# Assay: Inhibition of MAPK14 Kinase Activity
# Sequence of MAPK14 (human) (Q16539 whole entry, looked up): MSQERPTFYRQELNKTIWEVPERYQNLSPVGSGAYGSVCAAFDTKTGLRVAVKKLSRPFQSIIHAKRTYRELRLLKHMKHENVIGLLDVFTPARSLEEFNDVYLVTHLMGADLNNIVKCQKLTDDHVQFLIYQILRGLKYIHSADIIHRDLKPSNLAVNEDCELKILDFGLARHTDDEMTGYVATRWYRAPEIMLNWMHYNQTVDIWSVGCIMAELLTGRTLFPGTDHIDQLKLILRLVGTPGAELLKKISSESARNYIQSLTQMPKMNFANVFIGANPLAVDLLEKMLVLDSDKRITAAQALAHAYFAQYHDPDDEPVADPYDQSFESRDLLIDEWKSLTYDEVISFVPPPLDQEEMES
row,SMILES,IC50
1,O=C1CCC(Sc2cc(F)cc(F)c2)CN1c1c(Cl)cccc1Cl (stereo unspecified),≤ 10 µM
2,O=C1CCC(Oc2ccc(Cl)cc2)CN1C1C(Cl)CCCC1Cl (stereo unspecified),≤ 10 µM
3,CCN(CC)CC(=O)Nc1cc(Cl)c(N2CC(Cc3ccc(F)cc3F)CCC2=O)c(Cl)c1 (stereo unspecified),≤ 10 µM
4,O=C1CSC(Cc2ccc(Cl)cc2Cl)CN1c1c(Cl)cccc1Cl (stereo unspecified),≤ 10 µM
5,O=C1CCC(Sc2cccc3ccccc23)CN1c1c(Cl)cncc1Cl (stereo unspecified),≤ 10 µM
6,Cc1cc(C)cc(OC2CCC(=O)N(c3c(Cl)csc3Cl)C2)c1 (stereo unspecified),≤ 10 µM
7,O=C1CCC(Sc2ccccc2Cl)CN1c1c(Cl)ccnc1Cl (stereo unspecified),≤ 10 µM
8,O=C1CCC(Cc2ccc(F)cc2F)CN1c1c(Cl)cnc(CO)c1Cl (stereo unspecified),≤ 10 µM
9,O=C1CCC(Oc2ccc(F)cc2)CN1C1C(Cl)CCCC1Cl (stereo unspecified),≤ 10 µM
10,CC(=O)Nc1cc(Cl)c(N2CC(Sc3ccc(F)cc3F)CCC2=O)c(Cl)c1 (stereo unspecified),≤ 10 µM
11,O=C1CCC(Oc2ccccc2)CN1c1c(Cl)cccc1Cl (stereo unspecified),≤ 10 µM
12,COc1ccc(CC2CCC(=O)N(c3c(Cl)ccnc3Cl)C2)cc1 (stereo unspecified),≤ 10 µM
13,Cc1ccc(SC2CCC(=O)N(c3c(Cl)cccc3Cl)C2)c(C)c1 (stereo unspecified),≤ 10 µM
14,Cc1cc(C)cc(SC2CCC(=O)N(c3c(Cl)csc3Cl)C2)c1 (stereo unspecified),≤ 10 µM
15,O=C1CCC(Oc2ccc(F)cc2F)CN1c1c(Cl)ncc(CO)c1Cl (stereo unspecified),≤ 10 µM
16,O=C1CCC(Oc2ccccc2Cl)CN1c1c(Cl)csc1Cl (stereo unspecified),≤ 10 µM
17,O=C1CCC(Cc2ccc(Cl)cc2Cl)CN1c1c(Cl)csc1Cl (stereo unspecified),≤ 10 µM
18,Cc1ccc(SC2CCC(=O)N(c3c(Cl)cncc3Cl)C2)c(C)c1 (stereo unspecified),≤ 10 µM
19,O=C1CC[C@H](Cc2ccc(F)cc2F)CN1c1c(Cl)cccc1Cl,≤ 10 µM
20,C[C@@H]1C[C@H](Cc2ccc(F)cc2F)CN(c2c(Cl)cc([N+](=O)[O-])cc2Cl)C1=O,≤ 10 µM
21,CN1CCN(Cc2cc(Cl)c(N3CC(Cc4ccc(F)cc4F)CCC3=O)c(Cl)c2)CC1 (stereo unspecified),≤ 10 µM
22,O=C1CCC(Sc2ccc(F)cc2)CN1c1c(Cl)cccc1Cl (stereo unspecified),≤ 10 µM

row,SMILES,IC50
1,O=C1CCC(Oc2ccc(F)cc2F)CN1c1c(Cl)cnc(CO)c1Cl (stereo unspecified),≤ 10 µM
2,CC(C)(C)NC(=O)CNc1cc(Cl)c(N2CC(Cc3ccc(F)cc3F)CCC2=O)c(Cl)c1 (stereo unspecified),≤ 10 µM
3,Cc1cc(C(=O)O)cc(C)c1N1CC(Cc2ccc(F)cc2F)CCC1=O (stereo unspecified),≤ 10 µM
4,O=C1OCC(Cc2ccc(F)cc2F)CN1c1c(Cl)cc(CO)cc1Cl (stereo unspecified),≤ 10 µM
5,Cc1ccc(CC2CN(c3c(Cl)cccc3Cl)C(=O)CS2)cc1 (stereo unspecified),≤ 10 µM
6,O=C1CCC(Oc2ccc(Cl)cc2)CN1c1c(Cl)cncc1Cl (stereo unspecified),≤ 10 µM
7,O=C1CCC(Sc2ccc(F)cc2)CN1c1c(Cl)cncc1Cl (stereo unspecified),≤ 10 µM
8,Cc1cc(CCCCCO)cc(C)c1N1CC(Cc2ccc(F)cc2F)CCC1=O (stereo unspecified),≤ 10 µM
9,O=C1CCC(Oc2cc(F)cc(F)c2)CN1c1c(Cl)csc1Cl (stereo unspecified),≤ 10 µM
10,O=C1CC[C@@H](Cc2ccc(F)cc2F)CN1c1c(Cl)cccc1Cl,≤ 10 µM
11,Nc1cc(Cl)c(N2CC(Cc3ccc(F)cc3F)SCC2=O)c(Cl)c1 (stereo unspecified),≤ 10 µM
12,CCOC(=O)CCC(=O)Nc1cc(Cl)c(N2CC(Cc3ccc(F)cc3F)CCC2=O)c(Cl)c1 (stereo unspecified),≤ 10 µM
13,O=C(Cc1ccccc1)Nc1cc(Cl)c(N2CC(Sc3ccc(F)cc3F)CCC2=O)c(Cl)n1 (stereo unspecified),≤ 10 µM
14,O=C1CSC(Cc2cccc3ccccc23)CN1c1c(Cl)cccc1Cl (stereo unspecified),≤ 10 µM
15,COc1ccc(SC2CCC(=O)N(c3c(Cl)ccnc3Cl)C2)cc1 (stereo unspecified),≤ 10 µM
16,O=C1CCC(Sc2ccc(F)cc2F)CN1c1c(Cl)cc(O)nc1Cl (stereo unspecified),≤ 10 µM
17,CNc1cc(Cl)c(N2CC(Cc3ccc(F)cc3F)COC2=O)c(Cl)c1 (stereo unspecified),≤ 10 µM
18,O=C1CCC(Cc2ccc3ccccc3c2)CN1c1c(Cl)cccc1Cl (stereo unspecified),≤ 10 µM
19,O=C1CCC(Sc2ccc(F)cc2F)CN1c1c(Cl)cnc(CO)c1Cl (stereo unspecified),≤ 10 µM
20,CNc1ccc(Cl)c(N2CC(Cc3ccc(F)cc3F)CSC2=O)c1Cl (stereo unspecified),≤ 10 µM
21,Nc1ccc(Cl)c(N2CC(Cc3ccc(F)cc3F)CSC2=O)c1Cl (stereo unspecified),≤ 10 µM
22,O=C1NCC(Cc2ccc(Cl)cc2)CN1c1c(Cl)cccc1Cl (stereo unspecified),≤ 10 µM

row,SMILES,IC50
1,COC(=O)CCc1cc(Cl)c(N2CC(Cc3ccc(F)cc3F)CCC2=O)c(Cl)c1 (stereo unspecified),≤ 10 µM
2,O=C1NCC(Cc2cc(F)cc(F)c2)CN1c1c(Cl)cccc1Cl (stereo unspecified),≤ 10 µM
3,N[C@H]1C[C@@H](Cc2ccc(F)cc2F)CN(c2c(Cl)cccc2Cl)C1=O,≤ 10 µM
4,CC(C)(C)OC(=O)Nc1ccc(N2CC(Cc3ccc(F)cc3F)CCC2=O)c(Cl)c1 (stereo unspecified),≤ 10 µM
5,O=C1CCC(Cc2ccc(F)cc2F)CN1c1c(Cl)cc(N2C(=O)CCC2=O)cc1Cl (stereo unspecified),≤ 10 µM
6,COC(=O)/C=C/c1cc(C)c(N2CC(Cc3ccc(F)cc3F)CCC2=O)c(C)c1 (stereo unspecified),≤ 10 µM
7,Cc1cc(CCCCC=O)cc(C)c1N1CC(Cc2ccc(F)cc2F)CCC1=O (stereo unspecified),≤ 10 µM
8,O=C(Nc1ccc(CC2CCC(=O)N(c3c(Cl)cccc3Cl)C2)cc1)C1CCCCC1 (stereo unspecified),≤ 10 µM
9,Cc1cc(C)cc(CC2CCC(=O)N(c3c(Cl)cccc3Cl)C2)c1 (stereo unspecified),≤ 10 µM
10,CNc1ccc(Cl)c(N2CC(Cc3ccc(F)cc3F)CNC2=O)c1Cl (stereo unspecified),≤ 10 µM
11,O=C1CCC(Cc2ccc(F)cc2F)CN1c1c(Cl)cc(NCc2ccccn2)cc1Cl (stereo unspecified),≤ 10 µM
12,O=C1OCC(Cc2ccc(F)cc2)CN1c1c(Cl)cccc1Cl (stereo unspecified),≤ 10 µM
13,O=C(Cc1ccccc1)Nc1sc(Cl)c(N2CC(Oc3ccc(F)cc3F)CCC2=O)c1Cl (stereo unspecified),≤ 10 µM
14,O=C1CCC(Cc2ccc(F)cc2F)CN1c1c(Cl)cncc1Cl (stereo unspecified),≤ 10 µM
15,CN(C)c1cc(Cl)c(N2CC(Cc3ccc(F)cc3F)CCC2=O)c(Cl)c1 (stereo unspecified),≤ 10 µM
16,O=C1CCC(Oc2ccccc2F)CN1C1C(Cl)CCCC1Cl (stereo unspecified),≤ 10 µM
17,Cc1cccc(C)c1N1C[C@H](Cc2ccc(F)cc2F)C[C@H](C)C1=O,≤ 10 µM
18,O=C1CCC(Sc2ccc(F)cc2F)CN1c1c(Cl)ncc(O)c1Cl (stereo unspecified),≤ 10 µM
19,CC(=O)Nc1cc(Cl)c(N2CC(Cc3ccc(F)cc3F)SCC2=O)c(Cl)c1 (stereo unspecified),≤ 10 µM
20,O=C(O)/C=C/c1ccccc1CC1CCC(=O)N(c2c(Cl)cccc2Cl)C1 (stereo unspecified),≤ 10 µM

# Results, then the molecule that gave them:
row,IC50,SMILES
1,≤ 10 µM,CC(=O)Nc1cc(Cl)c(N2CC(Cc3ccc(F)cc3F)CN(C)C2=O)c(Cl)c1 (stereo unspecified)
2,≤ 10 µM,O=C(NCc1ccccc1CC1CCC(=O)N(c2c(Cl)cccc2Cl)C1)Nc1ccccc1 (stereo unspecified)
3,≤ 10 µM,COC(=O)/C=C/c1ccccc1CC1CCC(=O)N(c2c(Cl)cccc2Cl)C1 (stereo unspecified)
4,≤ 10 µM,CN1CCC(Nc2cc(Cl)c(N3CC(Cc4ccc(F)cc4F)CCC3=O)c(Cl)c2)CC1 (stereo unspecified)
5,≤ 10 µM,Cc1cc(C)cc(OC2CCC(=O)N(c3c(Cl)cccc3Cl)C2)c1 (stereo unspecified)
6,≤ 10 µM,O=C1COC(Cc2cc(F)cc(F)c2)CN1c1c(Cl)cccc1Cl (stereo unspecified)
7,≤ 10 µM,O=C1OCC(Cc2ccc(F)cc2F)CN1c1c(Cl)ccc(CO)c1Cl (stereo unspecified)
8,≤ 10 µM,COc1ccc(CC2CN(C)C(=O)N(c3c(Cl)cccc3Cl)C2)cc1 (stereo unspecified)
9,≤ 10 µM,Cc1cc(NC(=O)OC(C)(C)C)cc(C)c1N1CC(Cc2ccc(F)cc2F)CCC1=O (stereo unspecified)
10,≤ 10 µM,O=C(Cc1ccccc1)Nc1cc(Cl)c(N2CC(Oc3ccc(F)cc3F)CCC2=O)c(Cl)c1 (stereo unspecified)
11,≤ 10 µM,C[C@@H]1C[C@H](Cc2ccc(F)cc2F)CN(c2c(Cl)cc(N)cc2Cl)C1=O
12,≤ 10 µM,Nc1cc(Cl)c(N2CC(Sc3ccc(F)cc3F)CCC2=O)c(Cl)n1 (stereo unspecified)
13,≤ 10 µM,CNC(=O)c1cc(C)c(N2CC(Cc3ccc(F)cc3F)CCC2=O)c(C)c1 (stereo unspecified)
14,≤ 10 µM,COc1ccccc1CC1CN(C)C(=O)N(c2c(Cl)cccc2Cl)C1 (stereo unspecified)
15,≤ 10 µM,COc1ccccc1OC1CCC(=O)N(c2c(Cl)csc2Cl)C1 (stereo unspecified)
16,≤ 10 µM,O=C1CCC(Oc2cc(F)cc(F)c2)CN1c1c(Cl)cncc1Cl (stereo unspecified)
17,≤ 10 µM,Cc1cc(CCCCC(=O)O)cc(C)c1N1CC(Cc2ccc(F)cc2F)CCC1=O (stereo unspecified)
18,≤ 10 µM,O=C1CCC(Cc2ccccc2)CN1C1C(Cl)CCCC1Cl (stereo unspecified)
19,≤ 10 µM,Nc1ncc(Cl)c(N2CC(Sc3ccc(F)cc3F)CCC2=O)c1Cl (stereo unspecified)
20,≤ 10 µM,O=C1CCC(Cc2ccc(F)cc2F)CN1c1c(Cl)cc(CO)nc1Cl (stereo unspecified)
21,≤ 10 µM,O=C1CCC(Cc2cc(Cl)cc(Cl)c2)CN1c1c(Cl)ccnc1Cl (stereo unspecified)
22,≤ 10 µM,O=C1CCC(Cc2ccccc2Cl)CN1c1c(Cl)csc1Cl (stereo unspecified)
23,≤ 10 µM,Cc1ccc(OC2CCC(=O)N(C3C(Cl)CCCC3Cl)C2)cc1 (stereo unspecified)
24,≤ 10 µM,Cc1ccc(SC2CCC(=O)N(c3c(Cl)cncc3Cl)C2)cc1 (stereo unspecified)

row,IC50,SMILES
1,≤ 10 µM,O=C1CCC(Sc2ccc3ccccc3c2)CN1c1c(Cl)cncc1Cl (stereo unspecified)
2,≤ 10 µM,O=C1SCC(Cc2ccc(Cl)cc2)CN1c1c(Cl)cccc1Cl (stereo unspecified)
3,≤ 10 µM,C[C@@H]1C[C@H](Cc2ccc(F)cc2F)CN(c2c(Cl)cc(Br)cc2Cl)C1=O
4,≤ 10 µM,COc1ccc(OC2CCC(=O)N(c3c(Cl)cncc3Cl)C2)cc1 (stereo unspecified)
5,≤ 10 µM,O=C(O)c1cc(Cl)c(N2CC(Cc3ccc(F)cc3F)CCC2=O)c(Cl)c1 (stereo unspecified)
6,≤ 10 µM,CC1(C)NC(=O)N(CCNc2cc(Cl)c(N3CC(Cc4ccc(F)cc4F)CCC3=O)c(Cl)c2)C1=O (stereo unspecified)
7,≤ 10 µM,O=C1CCC(Cc2cccc3ccccc23)CN1c1c(Cl)ccnc1Cl (stereo unspecified)
8,≤ 10 µM,NC1CC(Cl)C(N2CC(Oc3ccc(F)cc3F)CCC2=O)C(Cl)C1 (stereo unspecified)
9,≤ 10 µM,O=C1CCC(Oc2ccc(F)cc2F)CN1c1c(Cl)cnc(O)c1Cl (stereo unspecified)
10,≤ 10 µM,O=C1CSC(Cc2ccccc2F)CN1c1c(Cl)cccc1Cl (stereo unspecified)
11,≤ 10 µM,O=C(Cc1ccccc1)Nc1cnc(Cl)c(N2CC(Sc3ccc(F)cc3F)CCC2=O)c1Cl (stereo unspecified)
12,≤ 10 µM,CNc1ncc(Cl)c(N2CC(Cc3ccc(F)cc3F)CCC2=O)c1Cl (stereo unspecified)
13,≤ 10 µM,CCc1ccc(CC2CCC(=O)N(c3c(Cl)cccc3Cl)C2)cc1 (stereo unspecified)
14,≤ 10 µM,O=C1CCC(Sc2ccccc2F)CN1c1c(Cl)ccnc1Cl (stereo unspecified)
15,≤ 10 µM,O=C(Cc1ccccc1)Nc1ccc(Cl)c(N2CC(Cc3ccc(F)cc3F)COC2=O)c1Cl (stereo unspecified)
16,≤ 10 µM,CC(=O)Nc1ncc(Cl)c(N2CC(Cc3ccc(F)cc3F)CCC2=O)c1Cl (stereo unspecified)
17,≤ 10 µM,O=C1CCC(Sc2ccccc2)CN1c1c(Cl)csc1Cl (stereo unspecified)
18,≤ 10 µM,Cc1cc(NC(=O)OC(C)(C)C)cc(C)c1N1CC(Cc2ccc(F)cc2F)CNC1=O (stereo unspecified)
19,≤ 10 µM,Cn1nc(C(C)(C)C)cc1NC(=O)OCc1ccccc1CC1CCC(=O)N(c2c(Cl)cccc2Cl)C1 (stereo unspecified)
20,≤ 10 µM,CCOC(=O)CNc1ccc(Cl)c(N2CC(Cc3ccc(F)cc3F)CCC2=O)c1 (stereo unspecified)
21,≤ 10 µM,CC(=O)Nc1cnc(Cl)c(N2CC(Cc3ccc(F)cc3F)CCC2=O)c1Cl (stereo unspecified)
22,≤ 10 µM,Nc1cc(Cl)c(N2CC(Cc3ccc(F)cc3F)CSC2=O)c(Cl)c1 (stereo unspecified)
23,≤ 10 µM,O=C1CCC(Oc2ccccc2)CN1c1c(Cl)ccnc1Cl (stereo unspecified)
